Measured values: ChEMBL document CHEMBL3045481, “Insecticide-induced resurgence of the whitebacked planthopper Sogatella furcifera (Horvath) (Hemiptera: Delphacidae) on rice varieties with different levels of resistance” (Crop Prot, 2011)

Legend:
Oryza sativa [1] = assay: Effect on total sugar level in Sogatella furcifera-resistanct Oryza sativa (rice) plant PR116 leaf sheath measured per gram of dry weight at 0.025% concentration (reference value: 30.27 mg/g dry wt); format: ADME, organism-based; details: in vivo
Oryza sativa [2] = assay: Effect on reducing sugar level in Sogatella furcifera-resistanct Oryza sativa (rice) plant PR116 leaf blade measured per gram of dry weight at 0.025% concentration (reference value: 9.35 mg/g dry wt); format: ADME, organism-based; details: in vivo
Sogatella furcifera [3] = assay: Insecticidal activity against Sogatella furcifera on insect-resistanct rice plant PR116 assessed as resurgence ratio at 0.025% concentration; format: functional
Sogatella furcifera [4] = assay: Insecticidal activity against Sogatella furcifera on insect-sensitive rice plant ARC6248 assessed as resurgence ratio at 0.025% concentration; format: functional
Oryza sativa [5] = assay: Effect on total phenols level in Sogatella furcifera-sensitive Oryza sativa (rice) plant ARC6248 leaf blade measured per gram of dry weight at 0.025% concentration (reference value: 17.08 mg/g dry wt); format: ADME, organism-based; details: in vivo
Sogatella furcifera [6] = assay: Insecticidal activity against Sogatella furcifera on insect-sensitive rice plant ARC6248 assessed as growth index at 0.025% concentration (reference value: 2.38%); format: functional
Oryza sativa [7] = assay: Effect on total amino acids level in Sogatella furcifera-resistanct Oryza sativa (rice) plant PR116 leaf blade measured per gram of dry weight at 0.025% concentration (reference value: 3.91 mg/g […]); format: ADME, organism-based; details: in vivo
Sogatella furcifera [8] = assay: Insecticidal activity against Sogatella furcifera on insect-resistanct rice plant PR116 assessed as nymphal survival at 0.025% concentration (reference value: 70.28%); format: functional
Sogatella furcifera [9] = assay: Insecticidal activity against Sogatella furcifera on insect-sensitive rice plant ARC6248 assessed as nymphal survival at 0.025% concentration (reference value: 34.17%); format: functional
Oryza sativa [10] = assay: Effect on reducing sugar level in Sogatella furcifera-sensitive Oryza sativa (rice) plant ARC6248 leaf sheath measured per gram of dry weight at 0.025% concentration (reference value: 6.41 mg/g dry wt); format: ADME, organism-based; details: in vivo
Oryza sativa [11] = assay: Effect on total phenols level in Sogatella furcifera-resistanct Oryza sativa (rice) plant PR116 leaf sheath measured per gram of dry weight at 0.025% concentration (reference value: 5.75 mg/g dry wt); format: ADME, organism-based; details: in vivo
Oryza sativa [12] = assay: Effect on total sugar level in Sogatella furcifera-sensitive Oryza sativa (rice) plant ARC6248 leaf blade measured per gram of dry weight at 0.025% concentration (reference value: 34.05 mg/g dry wt); format: ADME, organism-based; details: in vivo
Oryza sativa [13] = assay: Effect on total amino acids level in Sogatella furcifera-sensitive Oryza sativa (rice) plant ARC6248 leaf blade measured per gram of dry weight at 0.025% concentration (reference value: 3.54 mg/g […]); format: ADME, organism-based; details: in vivo
Sogatella furcifera [14] = assay: Insecticidal activity against Sogatella furcifera on insect-sensitive rice plant ARC6248 assessed as nymphal duration at 0.025% concentration (reference value: 14.48 days); format: functional
Oryza sativa [15] = assay: Effect on reducing sugar level in Sogatella furcifera-resistanct Oryza sativa (rice) plant PR116 leaf sheath measured per gram of dry weight at 0.025% concentration (reference value: 7.50 mg/g dry wt); format: ADME, organism-based; details: in vivo
Oryza sativa [16] = assay: Effect on total protein level in Sogatella furcifera-sensitive Oryza sativa (rice) plant ARC6248 leaf sheath measured per gram of dry weight at 0.025% concentration (reference value: 6.11 mg/g […]); format: ADME, organism-based; details: in vivo
Oryza sativa [17] = assay: Effect on total sugar level in Sogatella furcifera-resistanct Oryza sativa (rice) plant PR116 leaf blade measured per gram of dry weight at 0.025% concentration (reference value: 36.16 mg/g dry wt); format: ADME, organism-based; details: in vivo
Oryza sativa [18] = assay: Effect on total phenols level in Sogatella furcifera-sensitive Oryza sativa (rice) plant ARC6248 leaf sheath measured per gram of dry weight at 0.025% concentration (reference value: 12.75 mg/g dry wt); format: ADME, organism-based; details: in vivo
Oryza sativa [19] = assay: Effect on total protein level in Sogatella furcifera-sensitive Oryza sativa (rice) plant ARC6248 leaf blade measured per gram of dry weight at 0.025% concentration (reference value: 17.67 mg/g […]); format: ADME, organism-based; details: in vivo
Oryza sativa [20] = assay: Effect on total sugar level in Sogatella furcifera-sensitive Oryza sativa (rice) plant ARC6248 leaf sheath measured per gram of dry weight at 0.025% concentration (reference value: 25.98 mg/g dry wt); format: ADME, organism-based; details: in vivo
Sogatella furcifera [21] = assay: Insecticidal activity against Sogatella furcifera on insect-resistanct rice plant PR116 assessed as growth index at 0.025% concentration (reference value: 6.02%); format: functional
Oryza sativa [22] = assay: Effect on total protein level in Sogatella furcifera-resistanct Oryza sativa (rice) plant PR116 leaf blade measured per gram of dry weight at 0.025% concentration (reference value: 21.67 mg/g fresh wt); format: ADME, organism-based; details: in vivo
Sogatella furcifera [23] = assay: Insecticidal activity against Sogatella furcifera on insect-resistanct rice plant PR116 assessed as nymphal duration at 0.025% concentration (reference value: 11.75 days); format: functional
Oryza sativa [24] = assay: Effect on total amino acids level in Sogatella furcifera-sensitive Oryza sativa (rice) plant ARC6248 leaf sheath measured per gram of dry weight at 0.025% concentration (reference value: 2.11 mg/g fresh wt); format: ADME, organism-based; details: in vivo
Oryza sativa [25] = assay: Effect on total amino acids level in Sogatella furcifera-resistanct Oryza sativa (rice) plant PR116 leaf sheath measured per gram of dry weight at 0.025% concentration (reference value: 2.58 mg/g […]); format: ADME, organism-based; details: in vivo
Oryza sativa [26] = assay: Effect on reducing sugar level in Sogatella furcifera-sensitive Oryza sativa (rice) plant ARC6248 leaf blade measured per gram of dry weight at 0.025% concentration (reference value: 8.37 mg/g dry wt); format: ADME, organism-based; details: in vivo
Oryza sativa [27] = assay: Effect on total phenols level in Sogatella furcifera-resistanct Oryza sativa (rice) plant PR116 leaf blade measured per gram of dry weight at 0.025% concentration (reference value: 8.08 mg/g dry wt); format: ADME, organism-based; details: in vivo
Oryza sativa [28] = assay: Effect on total protein level in Sogatella furcifera-resistanct Oryza sativa (rice) plant PR116 leaf sheath measured per gram of dry weight at 0.025% concentration (reference value: 7.06 mg/g fresh wt); format: ADME, organism-based; details: in vivo

SMILES: CC1(C)[C@H](C(=O)O[C@H](C#N)c2cccc(Oc3ccccc3)c2)[C@@H]1C=C(Br)Br [DELTAMETHRIN]
- Activity (Oryza sativa [1]): 35.62 mg
- Activity (Oryza sativa [2]): 14.35 mg
- Ratio (Sogatella furcifera [3]): 1.75
- Ratio (Sogatella furcifera [4]): 1.28
- Activity (Oryza sativa [5]): 17.08 mg
- growth inhibition (GI) (Sogatella furcifera [6]): 2.74%
- Activity (Oryza sativa [7]): 4.62 mg
- Survival (Sogatella furcifera [8]): 78.05%
- Survival (Sogatella furcifera [9]): 38.89%
- Activity (Oryza sativa [10]): 10.76 mg
- Activity (Oryza sativa [11]): 5.42 mg
- Activity (Oryza sativa [12]): 38.84 mg
- Activity (Oryza sativa [13]): 4.21 mg
- Time (Sogatella furcifera [14]): 14.32 days
- Activity (Oryza sativa [15]): 13.8 mg
- Activity (Oryza sativa [16]): 7.78 mg
- Activity (Oryza sativa [17]): 44.2 mg
- Activity (Oryza sativa [18]): 12 mg
- Activity (Oryza sativa [19]): 19.83 mg
- Activity (Oryza sativa [20]): 35.36 mg
- growth inhibition (GI) (Sogatella furcifera [21]): 6.77%
- Activity (Oryza sativa [22]): 23.89 mg
- Time (Sogatella furcifera [23]): 11.63 days
- Activity (Oryza sativa [24]): 2.95 mg
- Activity (Oryza sativa [25]): 3.73 mg
- Activity (Oryza sativa [26]): 12.28 mg
- Activity (Oryza sativa [27]): 6.92 mg
- Activity (Oryza sativa [28]): 8 mg
